These results are taken from US20160175306A1, “COMBINATION OF A IMIDAZOPYRIDAZINE DERIVATIVE AND A MITOTIC AGENT FOR THE TREATMENT OF CANCER” (BAYER PHARMA AKTIENGESELLSCHAFT, priority 2013, published 2016).

A word on the IC50: it is the concentration needed to halve the response being measured.

SMILES strings stand for the structures.

The test system of one series is rat hepatocytes. As to the kind of experiment: In vitro metabolic stability in rat hepatocytes. Format: in vitro ADME. Particulars: 1 μM test compound, calculated from half-life. On the procedure: Investigation of In Vitro Metabolic Stability in Rat Hepatocytes (Including Calculation of Hepatic In Vivo Blood Clearance (CL))
Hepatocytes from Han Wistar rats were isolated via a 2-step perfusion method. After perfusion, the liver was carefully removed from the rat: the liver capsule was opened and the hepatocytes were gently shaken out into a Petri dish with ice-cold WME. The resulting cell suspension was filtered through sterile gaze in 50 ml falcon tubes and centrifuged at 50×g for 3 min at room temperature.
The cell pellet was resuspended in 30 ml WME and centrifuged through a Percoll® gradient for 2 times at 100×g. The hepatocytes were washed again with Williams' medium E (WME) and resuspended in medium containing 5% FCS. Cell viability was determined by trypan blue exclusion.
For the metabolic stability assay liver cells were distributed in WME containing 5% FCS to glass vials at a density of 1.0×10^6 vital cells/m. The test compound was added to a final concentration of 1 μM. During incubation, the hepatocyte suspensions were continuously shaken and aliquots were taken at 2, 8, 16, 30, 45 and 90 min, to which equal volumes of cold methanol were immediately added. Samples were frozen at −20° C. over night, after subsequently centrifuged for 15 minutes at 3000 rpm and the supernatant was analyzed with an Agilent 1200 HPLC-system with LCMS/MS detection.
The half-life of a test compound was determined from the concentration-time plot. From the half-life the intrinsic clearances were calculated. Together with the additional parameters liver blood flow, amount of liver cells in vivo and in vitro. The hepatic in vivo blood clearance (CL) and the maximal oral bioavailability (Fmax) was calculated. The following parameter values were used: Liver blood flow—4.2 L/h/kg rat; specific liver weight—32 g/kg rat body weight; liver cells in vivo—1.1×10^8 cells/g liver, liver cells in vitro—0.5×10^6/ml.

A further series addresses T1, human kinase Mps-1 (Homo sapiens, UniProt P33981).
T1 construct: N-terminally GST-tagged human full length recombinant Mps-1 kinase; purchased Invitrogen, Karslruhe, Germany PV4071
T1 sequence (P33981 1-857): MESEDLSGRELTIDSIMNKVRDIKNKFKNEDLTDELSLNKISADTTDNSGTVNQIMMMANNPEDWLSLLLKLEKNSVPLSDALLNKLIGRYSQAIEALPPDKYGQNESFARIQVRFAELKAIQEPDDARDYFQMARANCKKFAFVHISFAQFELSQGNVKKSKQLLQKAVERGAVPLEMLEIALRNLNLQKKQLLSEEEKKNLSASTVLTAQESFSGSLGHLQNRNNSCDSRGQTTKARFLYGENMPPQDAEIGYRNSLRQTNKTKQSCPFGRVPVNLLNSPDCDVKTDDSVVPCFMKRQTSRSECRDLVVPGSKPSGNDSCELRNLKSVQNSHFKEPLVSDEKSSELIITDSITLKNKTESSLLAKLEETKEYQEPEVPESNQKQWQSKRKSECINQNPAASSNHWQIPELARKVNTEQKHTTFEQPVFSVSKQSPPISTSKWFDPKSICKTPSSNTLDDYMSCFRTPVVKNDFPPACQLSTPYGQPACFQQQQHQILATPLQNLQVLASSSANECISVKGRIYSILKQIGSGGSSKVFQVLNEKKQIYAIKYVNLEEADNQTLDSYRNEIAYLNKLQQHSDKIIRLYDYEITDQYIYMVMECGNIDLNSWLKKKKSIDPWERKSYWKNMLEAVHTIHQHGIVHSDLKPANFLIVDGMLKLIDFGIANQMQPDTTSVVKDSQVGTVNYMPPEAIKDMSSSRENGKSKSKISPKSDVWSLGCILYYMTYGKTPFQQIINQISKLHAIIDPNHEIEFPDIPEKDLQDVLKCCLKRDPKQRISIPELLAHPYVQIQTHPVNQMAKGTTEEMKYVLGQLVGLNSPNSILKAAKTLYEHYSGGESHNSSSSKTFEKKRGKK
Kind of series: Mps-1 Kinase Assay (TR-FRET). The note with it: 10 μM ATP. Format: biochemical. On the procedure:
The human kinase Mps-1 phosphorylates a biotinylated substrate peptide. Detection of the phosphorylated product is achieved by time-resolved fluorescence resonance energy transfer (TR-FRET) from Europium-labelled anti-phospho-Serine/Threonine antibody as donor to streptavidin Labelled with cross-linked allophycocyanin (SA-XLent) as acceptor. Compounds are tested for their inhibition of the kinase activity.
N-terminally GST-tagged human full length recombinant Mps-1 kinase (purchased from Invitrogen, Karslruhe, Germany, cat. no PV4071) was used. As substrate for the kinase reaction a biotinylated peptide of the amino-acid sequence […] (C-terminus in amide form, purchased from Biosynthan GmbH, Berlin) was used.
The concentration of Mps-1 in the assay was adjusted to the activity of the enzyme lot and was chosen appropriate to have the assay in the linear range, typical enzyme concentrations were in the range of about 1 nM (final conc. in the 5 μl assay volume).
The resulting mixture was incubated 1 h at 22° C. to allow the binding of the phosphorylated peptide to the anti-phospho(Ser/Thr)-Europium-antibody. Subsequently the amount of phosphorylated substrate was evaluated by measurement of the resonance energy transfer from the Europium-labelled anti-phospho(Ser/Thr) antibody to the Streptavidin-XLent.

As for `Cc1cc(-c2cnc3c(NCCC(F)(F)F)cc(C(O)c4cccc(F)c4O)nn23)ccc1C(=O)NC1CC1` (racemic) [Compound A3, (RS)—N-Cyclopropyl-4-{6-[(3-fluoro-2-hydroxyphenyl)(hydroxy)methyl]-8-[(3,3,3-trifluoropropyl)amino]imidazo[1,2-b]pyridazin-3-yl}-2-methylbenzamide], the “Fmax (maximal oral bioavailability)” value in the series on rat hepatocytes is on record as 18%. Also, on human kinase Mps-1, the IC50 stood at 0.2 nM.

Regarding `Cc1cc(-c2cnc3c(NCCC(F)(F)F)cc(C(C)(O)c4cccc(F)c4O)nn23)ccc1C(=O)NC1CC1` (racemic) [Compound A4, (RS)—N-Cyclopropyl-4-{6-[1-(3-fluoro-2-hydroxyphenyl)-1-hydroxyethyl]-8-[(3,3,3-trifluoropropyl)amino]imidazo[1,2-b]pyridazin-3-yl}-2-methylbenzamide], the “Fmax (maximal oral bioavailability)” value in the series on rat hepatocytes is 36%. The same molecule gave an IC50 on human kinase Mps-1 of 0.3 nM.

For the molecule `Cc1cc(-c2cnc3c(NCCC(F)(F)F)cc(C(F)c4cccc(F)c4)nn23)ccc1C(=O)NC1CC1` (racemic) [Compound A5, (RS)—N-Cyclopropyl-4-{6-[fluoro(3-fluorophenyl)methyl]-8-[(3,3,3-trifluoropropyl)amino]imidazo[1,2-b]pyridazin-3-yl}-2-methylbenzamide], the “Fmax (maximal oral bioavailability)” value with rat hepatocytes was 49%. The same molecule showed an IC50 against human kinase Mps-1 of 0.7 nM.

Take `COc1ccc(Cc2cc(NCCC(F)(F)F)c3ncc(-c4ccc(C(=O)NC5CC5)c(C)c4)n3n2)cc1F` [Comparative Example 1, N-Cyclopropyl-4-{6-(3-fluoro-4-methoxybenzyl)-8-[(3,3,3-trifluoropropyl)amino]imidazo[1,2-b]pyridazin-3-yl}-2-methylbenzamide, reference compound]: the “Fmax (maximal oral bioavailability)” value in the series with rat hepatocytes is listed as 29%.

As for `Cc1cc(-c2cnc3c(NCCC(F)(F)F)cc(Cc4cccc(F)c4O)nn23)ccc1C(=O)NC1CC1` [Comparative Example 2, N-Cyclopropyl-4-{6-(3-fluoro-2-hydroxybenzyl)-8-[(3,3,3-trifluoropropyl)amino]imidazo[1,2-b]pyridazin-3-yl}-2-methylbenzamide, reference compound], the “Fmax (maximal oral bioavailability)” value in the series with rat hepatocytes is listed as 3%.

As to `Cc1cc(-c2cnc3c(NCCC(F)(F)F)cc(Cc4cccc(F)c4)nn23)ccc1C(=O)NC1CC1` [Comparative Example 3, N-Cyclopropyl-4-{6-(3-fluorobenzyl)-8-[(3,3,3-trifluoropropyl)amino]imidazo[1,2-b]pyridazin-3-yl}-2-methylbenzamide, reference compound], in the series with rat hepatocytes, the “Fmax (maximal oral bioavailability)” value is 43%.

As to `COc1cccc(Cc2cc(NCCC(F)(F)F)c3ncc(-c4ccc(C(=O)NC5CC5)c(C)c4)n3n2)c1` [Comparative Example 4, N-cyclopropyl-4-{6-(3-methoxybenzyl)-8-[(3,3,3-trifluoropropyl)amino]imidazo[1,2-b]pyridazin-3-yl}-2-methylbenzamide, reference compound], the “Fmax (maximal oral bioavailability)” value in the series with rat hepatocytes was 18%.

Regarding `COc1ccc(Cc2cc(NCCC(F)(F)F)c3ncc(-c4ccc(C(=O)NC5CC5)c(C)c4)n3n2)cc1` [Comparative Example 5, N-Cyclopropyl-4-{6-(4-methoxybenzyl)-8-[(3,3,3-trifluoropropyl)amino]imidazo[1,2-b]pyridazin-3-yl}-2-methylbenzamide, reference compound], in the series on rat hepatocytes, the “Fmax (maximal oral bioavailability)” value is reported as 35%.

Take `C=C(c1ccc(OC)c(F)c1)c1cc(NCCC(F)(F)F)c2ncc(-c3ccc(C(=O)NC4CC4)c(C)c3)n2n1` [Compound A1, N-Cyclopropyl-4-{6-[1-(3-fluoro-4-methoxyphenyl)ethenyl]-8-[(3,3,3-trifluoropropyl)amino]imidazo[1,2-b]pyridazin-3-yl}-2-methylbenzamide]: in the series on rat hepatocytes, the “Fmax (maximal oral bioavailability)” value is 39%.

Take `Cc1cc(-c2cnc3c(NCCC(F)(F)F)cc(C(F)(F)c4cccc(F)c4)nn23)ccc1C(=O)NC1CC1` [Compound A6, N-Cyclopropyl-4-{6-[difluoro(3-fluorophenyl)methyl]-8-[(3,3,3-trifluoropropyl)amino]imidazo[1,2-b]pyridazin-3-yl}-2-methylbenzamide]: in the series with rat hepatocytes, the “Fmax (maximal oral bioavailability)” value was 70%.

In the case of `COc1ccc(C(=O)c2cc(NCCC(F)(F)F)c3ncc(-c4ccc(C(=O)NC5CC5)c(C)c4)n3n2)cc1F` [Compound A13, N-Cyclopropyl-4-{6-(3-fluoro-4-methoxybenzoyl)-8-[(3,3,3-trifluoropropyl)amino]imidazo[1,2-b]pyridazin-3-yl}-2-methylbenzamide], the “Fmax (maximal oral bioavailability)” value in the series with rat hepatocytes is 75%.

For the molecule `COc1ccc(C(F)(F)c2cc(NCCC(F)(F)F)c3ncc(-c4ccc(C(=O)NC5CC5)c(C)c4)n3n2)cc1` [Compound A16, N-Cyclopropyl-4-{6-[difluoro(4-methoxyphenyl)methyl]-8-[(3,3,3-trifluoropropyl)amino]imidazo[1,2-b]pyridazin-3-yl}-2-methylbenzamide], in the series with rat hepatocytes, the “Fmax (maximal oral bioavailability)” value is listed as 56%.

Regarding `Cc1cc(-c2cnc3c(NCCC(F)(F)F)cc(C4(c5cccc(F)c5F)CC4)nn23)ccc1C(=O)NC1CC1` [Compound A17, N-Cyclopropyl-4-{6-[1-(2,3-difluorophenyl)cyclopropyl]-8-[(3,3,3-trifluoropropyl)amino]imidazo[1,2-b]pyridazin-3-yl}-2-methylbenzamide], the “Fmax (maximal oral bioavailability)” value with rat hepatocytes is given as 50%.

As for `C=C(c1cc(NCCC(F)(F)F)c2ncc(-c3ccc(C(=O)NC4CC4)c(C)c3)n2n1)c1cc(F)ccc1F` [Compound A19, N-Cyclopropyl-4-{6-[1-(2,5-difluorophenyl)vinyl]-8-[(3,3,3-trifluoropropyl)amino]imidazo[1,2-b]pyridazin-3-yl}-2-methylbenzamide], the IC50 at human kinase Mps-1 was 0.6 nM.

With `Cc1cc(-c2cnc3c(NCCC(F)(F)F)cc(C4(c5cc(F)ccc5F)CC4)nn23)ccc1C(=O)NC1CC1` [Compound A20, N-Cyclopropyl-4-{6-[1-(2,5-difluorophenyl)cyclopropyl]-8-[(3,3,3-trifluoropropyl)amino]imidazo[1,2-b]pyridazin-3-yl}-2-methylbenzamide], the midpoint of inhibition against human kinase Mps-1, the IC50, lay at 0.8 nM.

Regarding `Cc1cc(-c2cnc3c(NCCC(F)(F)F)cc(C(F)(F)c4cc(F)ccc4F)nn23)ccc1C(=O)NC1CC1` [Compound A21, N-Cyclopropyl-4-{6-[(2,5-difluorophenyl)(difluoro)methyl]-8-[(3,3,3-trifluoropropyl)amino]imidazo[1,2-b]pyridazin-3-yl}-2-methylbenzamide], half-maximal inhibition against human kinase Mps-1 (IC50) was put at 0.5 nM.

`Cc1cc(-c2cnc3c(NCCC(F)(F)F)cc(C4(c5cc(F)ccc5O)CC4)nn23)ccc1C(=O)NC1CC1` [Compound A23, N-cyclopropyl-4-{6-[1-(5-fluoro-2-hydroxyphenyl)cyclopropyl]-8-[(3,3,3-trifluoropropyl)amino]imidazo[1,2-b]pyridazin-3-yl}-2-methylbenzamide]: the “Fmax (maximal oral bioavailability)” value in the series on rat hepatocytes is 40%.
